Biological target: His-tagged recombinant human TrkA (Homo sapiens (Human), UniProt P04629)
Experiment: TrkA LanthaScreen Eu Kinase Binding Assay
Conditions: averaged IC50; TR-FRET binding, 60 min, 22° C.; read-out: TrkA Enzyme IC50
Procedure, shortened: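 Three-fold compound dilutions (2% DMSO final) were incubated 60 min at 22° C. with 5 nM His-TrkA cytoplasmic domain, tracer 236 (4 nM), biotinylated anti-His (2 nM) and europium streptavidin (2 nM) in MOPS pH 7.5 buffer. Emission ratio 665/615 gave percent of control; four-parameter fit yielded IC50.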

His-tagged recombinant human TrkA, sequence (P04629 440-796): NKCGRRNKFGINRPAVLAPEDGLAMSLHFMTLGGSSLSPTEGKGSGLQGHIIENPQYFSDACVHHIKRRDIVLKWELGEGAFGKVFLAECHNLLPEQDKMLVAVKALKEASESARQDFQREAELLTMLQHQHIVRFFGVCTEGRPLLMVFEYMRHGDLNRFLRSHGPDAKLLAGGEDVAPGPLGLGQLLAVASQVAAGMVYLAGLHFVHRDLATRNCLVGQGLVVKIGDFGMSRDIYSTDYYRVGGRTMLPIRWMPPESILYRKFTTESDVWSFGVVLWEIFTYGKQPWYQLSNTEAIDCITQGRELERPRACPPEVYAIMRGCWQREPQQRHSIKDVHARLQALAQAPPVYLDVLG

IC50, < 100 nM:
COCc1ccc2c(c1)C(NC(=O)Nc1c(C)c(-c3cnn(C)c3)nn1-c1ccccc1)COC2 (stereo not drawn) [Example 32, 1-(1′,4-dimethyl-1-phenyl-1H,1′H-[3,4′-bipyrazol]-5-yl)-3-(6-(methoxymethyl)isochroman-4-yl)urea]
Cc1c(-c2cnn(C)c2)nn(-c2ccccc2)c1NC(=O)N[C@H]1CCCc2ccccc21 [Example 2, (S)-1-(1′,4-dimethyl-1-phenyl-1H,1′H-3,4′-bipyrazol-5-yl)-3-(1,2,3,4-tetrahydronaphthalen-1-yl)urea]
Cc1c(-c2cnn(C)c2)nn(-c2ccccc2)c1NC(=O)NC1CCOc2cc(F)ccc21 (stereo not drawn) [Example 12, 1-(1′,4-dimethyl-1-phenyl-1H,1′H-[3,4′-bipyrazol]-5-yl)-3-(7-fluorochroman-4-yl)urea]
